The target in the experiment is T1, human Mas receptor (Homo sapiens, UniProt P04201).
T1 construct: expressed in transfected cells
T1 sequence (P04201 1-325): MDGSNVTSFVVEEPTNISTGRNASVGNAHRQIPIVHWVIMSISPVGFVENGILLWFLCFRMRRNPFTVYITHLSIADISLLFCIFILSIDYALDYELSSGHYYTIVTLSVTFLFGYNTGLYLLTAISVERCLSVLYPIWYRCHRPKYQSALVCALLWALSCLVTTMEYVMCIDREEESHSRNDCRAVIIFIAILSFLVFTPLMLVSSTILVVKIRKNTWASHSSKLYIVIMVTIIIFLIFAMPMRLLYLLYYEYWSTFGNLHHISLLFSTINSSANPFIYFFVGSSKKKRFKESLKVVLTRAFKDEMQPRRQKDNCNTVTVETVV
Briefly: Mas receptor IP3 assay (inverse agonist assay). It is filed as cell-based. The conditions noted are these: HEK293 cells over-expressing human Mas receptor; average from several experiments. How it is done:
The Mas receptor IP3 assay was performed using a mammalian cell line (HEK293) which was transfected with a plasmid containing the human Mas receptor and selected for stable expression of the receptor. For the inverse agonist assay, higher levels of Mas receptor constitutive activity were desired. To achieve this, Mas receptor expression levels were increased by transiently transfecting the same Mas receptor stable cell line with additional human Mas receptor plasmid DNA following standard procedures. These cells were used in the Mas receptor IP3 assay approximately 24 hours post-transfection.
Cells were split into 96-well plates (50,000 cells/well) and allowed to attach for a period of 6 hours. The growth medium was then replaced with medium supplemented with 4 μCi/ml [^3H]myo-inositol (100 μl; Perkin Elmer Life Sciences) and the cells were allowed to incubate for approximately 20 hours. Test compounds were serially diluted in inositol-free media containing 10 mM LiCl. The media in the plates was removed by aspiration, replaced with these test compound solutions and incubated at 37° C. for 1 hour. Following this incubation, the media was removed by aspiration and replaced with buffer containing 0.1M formic acid. The plates were then frozen overnight at −80° C. to achieve complete cell lysis.
The following day, the assay plates were thawed at room temperature. The thawed contents were then transfered to 96-well filter plates (Millipore, Multiscreen) pre-loaded with resin (Biorad, AG1-X8 100-200 mesh, formate form). The plate was filtered using a vacuum manifold and the resin was washed multiple times with water. An elution buffer was then applied (200 μl, 0.2M Ammonium formate/0.1M formic acid) and the resulting eluent was collected, under vacuum, in a 96-well collection plate. Aliquots of the eluent (80 μl) were transferred to filter plates (Whatman, Unifilter GF/C) and dried in a 45° C. oven overnight. Dried plates were counted on a scintillation counter following the addition of an appropriate scintillant (Perkin Elmer Life Sciences, Optiphase Supermix or Hi-Safe 3).

One may read the IC50 as the midpoint of a concentration-inhibition curve.

With `C=CCN1CCC2(CC1)CN(S(=O)(=O)c1ccccc1F)c1ccc(F)cc12` [Compound 229, 1′-(allyl)-1,2-dihydro-5-fluoro-1-(2-fluoro-benzenesulfonyl)-spiro[3H-indole-3,4′-piperidine]], the IC50 was 846 nM.

For the compound `C=CCN1CCC2(CC1)CN(C(=O)c1cc(Cl)sc1Cl)c1ccc(F)cc12` [Compound 211, 1′-(allyl)-1,2-dihydro-5-fluoro-1-(2,5-dichloro-thiophene-3-carbonyl)-spiro[3H-indole-3,4′-piperidine]], the IC50 amounted to 855 nM.

With `C=CCN1CCC2(CC1)CN(C(=O)c1ccc(Br)s1)c1ccc(F)cc12` [Compound 223, 1′-(allyl)-1,2-dihydro-5-fluoro-1-(5-bromo-thiophene-2-carbonyl)-spiro[3H-indole-3,4′-piperidine]], the IC50 stood at 307 nM.

`C=CCN1CCC2(CC1)CN(C(=O)c1cccnc1Cl)c1ccc(F)cc12` [Compound 93, 1′-(allyl)-1,2-dihydro-5-fluoro-1-(2-chloro-pyridine-3-carbonyl)-spiro[3H-indole-3,4′-piperidine]] registered an IC50 of 841 nM.

The compound `C=CCN1CCC2(CC1)CN(C(=O)c1ccccc1F)c1ccc(OC)cc12` [Compound 204, 1′-(allyl)-1,2-dihydro-5-methoxy-1-(2-fluoro-benzoyl)-spiro[3H-indole-3,4′-piperidine]] had an IC50 of 554 nM.

For the compound `C=CCN1CCC2(CC1)CN(S(=O)(=O)c1ccccc1Cl)c1ccc(F)cc12` [Compound 206, 1′-(allyl)-1,2-dihydro-5-fluoro-1-(2-chloro-benzenesulfonyl)-spiro[3H-indole-3,4′-piperidine]], the IC50 turned out to be 303 nM.

Compound `O=C(c1cccc(F)c1F)N1CC2(CCN(CC3CC3)CC2)c2cc(F)ccc21` [Compound 142, 1′-(cyclopropylmethyl)-1,2-dihydro-5-fluoro-1-(2,3-difluoro-benzoyl)-spiro[3H-indole-3,4′-piperidine]] returned an IC50 of 480 nM.

For `C=CCN1CCC2(CC1)CN(S(=O)(=O)c1ccc(Cl)s1)c1ccc(F)cc12` [Compound 214, 1′-(allyl)-1,2-dihydro-5-fluoro-1-(5-chloro-thiophene-2-sulfonyl)-spiro[3H-indole-3,4′-piperidine]], the IC50 amounted to 455 nM.

Compound `O=C(c1cccc2ccccc12)N1CC2(CCN(CC3CC3)CC2)c2cc(F)ccc21` [Compound 159, 1′-(cyclopropylmethyl)-1,2-dihydro-5-fluoro-1-(naphthylene-1-carbonyl)-spiro[3H-indole-3,4′-piperidine]] registered an IC50 of 505 nM.

`C=CCN1CCC2(CC1)CN(C(=O)c1cccc(Cl)c1)c1ccc(F)cc12` [Compound 86, 1′-(allyl)-1,2-dihydro-5-fluoro-1-(3-chloro-benzoyl)-spiro[3H-indole-3,4′-piperidine]] showed an IC50 of 705 nM.

The compound `C=CCN1CCC2(CC1)CN(S(=O)(=O)c1cc(Cl)c(Cl)s1)c1ccc(F)cc12` [Compound 210, 1′-(allyl)-1,2-dihydro-5-fluoro-1-(4,5-dichloro-thiophene-2-sulfonyl)-spiro[3H-indole-3,4′-piperidine]] came in with an IC50 of 890 nM.

On to `C=CCN1CCC2(CC1)CN(C(=O)c1ccccc1Cl)c1ccc(F)cc12` [Compound 69, 1′-(allyl)-1,2-dihydro-5-fluoro-1-(2-chloro-benzoyl)-spiro[3H-indole-3,4′-piperidine]], for which the IC50 was 378 nM.

As for `C=CCN1CCC2(CC1)CN(C(=O)c1cccc(C(Cl)Cl)c1)c1ccccc12` [Compound 102, 1′-(allyl)-1,2-dihydro-1-(3-dichloromethyl-benzoyl)-spiro[3H-indole-3,4′-piperidine]], the IC50 came out at 939 nM.

With `C=CCN1CCC2(CC1)CN(C(=O)c1ccc([N+](=O)[O-])cc1)c1ccc(F)cc12` [Compound 83, 1′-(allyl)-1,2-dihydro-5-fluoro-1-(4-nitro-benzoyl)-spiro[3H-indole-3,4′-piperidine]], the IC50 was 757 nM.

The compound `C=CCN1CCC2(CC1)CN(C(=O)c1cccc3ccccc13)c1ccccc12` [Compound 133, 1′-(allyl)-1,2-dihydro-1-(naphthylene-1-carbonyl)-spiro[3H-indole-3,4′-piperidine]] showed an IC50 of 535 nM.

As to `C=CCN1CCC2(CC1)CN(C(=O)c1cccnc1SC)c1ccc(F)cc12` [Compound 215, 1′-(allyl)-1,2-dihydro-5-fluoro-1-(2-methylsulfanyl-pyridine-3-carbonyl)-spiro[3H-indole-3,4′-piperidine]], the 50% inhibitory concentration (IC50) stood at 607 nM.

In the case of `O=S(=O)(c1ccc(Cl)cc1Cl)N1CC2(CCN(CC3CC3)CC2)c2cc(F)ccc21` [Compound 192, 1′-(cyclopropylmethyl)-1,2-dihydro-5-fluoro-1-(2,4-dichloro-benzenesulfonyl)-spiro[3H-indole-3,4′-piperidine]], the concentration for half-maximal inhibition (IC50) was found to be 891 nM.

As for `COc1ccc(C(=O)N2CC3(CCN(CC4CC4)CC3)c3cc(F)ccc32)cc1` [Compound 31, 1′-(cyclopropylmethyl)-1,2-dihydro-5-fluoro-1-(4-methoxy-benzoyl)-spiro[3H-indole-3,4′-piperidine]], the IC50 came to 900 nM.

On to `O=C(c1ccc2ccccc2c1)N1CC2(CCN(CC3CC3)CC2)c2cc(F)ccc21` [Compound 160, 1′-(cyclopropylmethyl)-1,2-dihydro-5-fluoro-1-(naphthylene-2-carbonyl)-spiro[3H-indole-3,4′-piperidine]], for which the IC50 stood at 721 nM.

Turning to `O=C1c2ccccc2-c2cccc(C(=O)N3CC4(CCN(CC5CC5)CC4)c4cc(F)ccc43)c21` [Compound 153, 1′-(cyclopropylmethyl)-1,2-dihydro-5-fluoro-1-(9-oxo-9H-fluorene-1-carbonyl)-spiro[3H-indole-3,4′-piperidine]], the IC50 stood at 774 nM.

The compound `O=C(c1cccc(C(Cl)Cl)c1)N1CC2(CCN(CC3CC3)CC2)c2cc(F)ccc21` [Compound 147, 1′-(cyclopropylmethyl)-1,2-dihydro-5-fluoro-1-(3-dichloromethyl-benzoyl)-spiro[3H-indole-3,4′-piperidine]] yielded an IC50 of 735 nM.

In the case of `O=C(c1ccccc1F)N1CC2(CCN(CC3CC3)CC2)c2cc(F)ccc21` [Compound 139, 1′-(cyclopropylmethyl)-1,2-dihydro-5-fluoro-1-(2-fluoro-benzoyl)-spiro[3H-indole-3,4′-piperidine]], the IC50 came out at 728 nM.

`C=CCN1CCC2(CC1)CN(C(=O)c1ccc3c(c1)OCO3)c1ccc(F)cc12` [Compound 89, 1′-(allyl)-1,2-dihydro-5-fluoro-1-(benzo[1,3]dioxole-5-carbonyl)-spiro[3H-indole-3,4′-piperidine]] showed an IC50 of 989 nM.

On to `O=C(c1cccc(Cl)c1)N1CC2(CCN(CC3CC3)CC2)c2cc(F)ccc21` [Compound 165, 1′-(cyclopropylmethyl)-1,2-dihydro-5-fluoro-1-(3-chloro-benzoyl)-spiro[3H-indole-3,4′-piperidine]], for which the IC50 came out at 757 nM.

`C=CCN1CCC2(CC1)CN(S(=O)(=O)c1ccc(Cl)cc1Cl)c1ccc(F)cc12` [Compound 185, 1′-(allyl)-1,2-dihydro-5-fluoro-1-(2,4-dichloro-benzenesulfonyl)-spiro[3H-indole-3,4′-piperidine]] yielded a half-maximal inhibitory concentration (IC50) of 956 nM.

Turning to `C=CCN1CCC2(CC1)CN(C(=O)c1cccc(C(Cl)Cl)c1)c1ccc(F)cc12` [Compound 92, 1′-(allyl)-1,2-dihydro-5-fluoro-1-(3-dichloromethyl-benzoyl)-spiro[3H-indole-3,4′-piperidine]], the IC50 worked out at 592 nM.

Compound `C=CCN1CCC2(CC1)CN(C(=O)c1cccc3ccccc13)c1ccc(F)cc12` [Compound 85, 1′-(allyl)-1,2-dihydro-5-fluoro-1-(naphthalene-1-carbonyl)-spiro[3H-indole-3,4′-piperidine]] had an IC50 of 381 nM.

As for `C=CCN1CCC2(CC1)CN(C(=O)c1ccc(F)cc1F)c1ccc(F)cc12` [Compound 76, 1′-(allyl)-1,2-dihydro-5-fluoro-1-(2,4-difluoro-benzoyl)-spiro[3H-indole-3,4′-piperidine]], the IC50 stood at 936 nM.

In turn, `O=C(N1CC2(CCN(CC3CC3)CC2)c2cc(F)ccc21)C12CC3CC(CC(C3)C1)C2` [Compound 168, 1′-(cyclopropylmethyl)-1,2-dihydro-5-fluoro-1-(adamantane-1-carbonyl)-spiro[3H-indole-3,4′-piperidine]] displayed a concentration for half-maximal inhibition (IC50) of 502 nM.

For `C=CCN1CCC2(CC1)CN(C(=O)c1cc(OC)cc(OC)c1)c1ccc(F)cc12` [Compound 73, 1′-(allyl)-1,2-dihydro-5-fluoro-1-(3,5-dimethoxy-benzoyl)-spiro[3H-indole-3,4′-piperidine]], the 50% inhibitory concentration (IC50) was 867 nM.

Values taken from patent publication US20070254903A1, “Novel Spiroindoline or Spiroisoquinoline Compounds, Methods of Use and Compositions Thereof” (ARENA PHARMACEUTICALS, INC., priority 2003, published 2007).
